In patent publication US20200016125A1, “GRANZYME B INHIBITOR COMPOSITIONS AND METHODS FOR THE PREVENTION AND/OR TREATMENT OF SKIN BLISTERING AND/OR PEELING” (The University of British Columbia, priority 2017, published 2020):

Key:
GzmB [1] = target: T1, GzmB (Homo sapiens, UniProt P10144); assay: GzmB cleavage assay of integrin α6/β4 (α6 and β4 sub-units) with GzmB inhibitors; format: biochemical
T1 construct: purchased EmeraldBio
Description: (§1) For inhibition studies, prior to the addition of substrates to the reaction, GzmB was incubated in the presence of 100 μM Compound A for 1 hour at 37° C. After 24 hours incubation, proteins were denatured, separated on a 4%-20% SDS-PAGE gel (for α6/β4). […] For inhibition studies, prior to the addition of substrates to the reaction, GzmB was incubated in the presence of 100 μM Compound A for 1 hour at 37° C. After 24 hours incubation, nidogen-2 protein was denatured and separated on a 7.5% SDS-PAGE gel. Cleavage was detected by anti-nidogen-2 antibody (R&D Systems). […] For inhibition studies, prior to the addition of substrates to the reaction, GzmB was incubated in the presence of 100 μM Compound A for 1 hour at 37° C. After 24 hours incubation, collagen VII protein was denatured and separated on a 10% SDS-PAGE gel. Cleavage was detected by anti-collagen VII antibody (ABCAM, Toronto, ON).
(§2) The recombinant human integrin α6/β4 (α6 a.a. 24-878, β4 a.a. 28-710, R&D Systems, Minneapolis, Minn.), collagen VII (199-482 a.a., MyBiosource, San Diego, Calif.), collagen XVII (a.a. 490-1497, generous gift from Dr. Claus-Werner Franzke), and collagen I (Novus Biologicals, Littleton, Colo.) were incubated for 24 hours at 37° C. in 200 nM purified human GzmB (EmeraldBio, Bainbridge Island, Wash.). For inhibition studies, prior to the addition of substrates to the reaction, GzmB was incubated in the presence of 600 nm serpin A3N (generous gift from Dr. Chris R. Bleackley, University of Alberta, Edmonton, AB, Canada) or 100 NM of the small molecule inhibitor Compound 20 (courtesy of the Centre for Drug Research and Development, Vancouver, BC) for 1 hour at 37° C. […] Cleavage was detected by Western Blot using anti-human integrin α6 sub-unit (ABCAM), anti-human integrin β4 sub-unit (R&D Systems, Minneapolis, Minn.), anti collagen VII (ABCAM), and anti-human collagen XVII (generous gift from Dr. Claus-Werner Franzke) and imaged using a Li-Cor Odissey® FC (Li-Cor, Lincoln, Nebr.). […]

[2] = system: diabetic mouse model, burn injury to induce blistering; assay: Burn injury blistering in diabetic mouse model; format: in vivo; details: for blistering compared to saline-only treatment: FIG. 8B, 30-day study
Description: FIGS. 8A through 8C provide evidence Compound A, a GzmB inhibitor, prevents blistering. Mice were exposed to burn injury by heating a steal rod for 6 seconds to 100° C. to induce blistering. Two independent experiments were run: In FIG. 8A, Compound A was added daily for 30 days. […] In FIG. 8B, Compound A in PBS (3.6 mg/mL) was administered daily by subcutaneous injection and in a gel (3.6 mg/mL) administered daily by topical application.
In this example mice were exposed to burn injury by heating a steal rod for 6 seconds to 100° C. to induce blistering.
There were two separate experiments run. Experiment 1 was a 30-day 3-arm study. Arm 1 consisted of treating the mouse daily with Compound A (3.6 mg/mL) in PBS by subcutaneous injection. In arm 2, Compound A (3.6 mg/mL) was administered to the mouse by daily topical application in the gel. In arm 3, the mouse was administered daily by subcutaneous injection saline as a control.
Experiment 2 was a 25-day 2-arm study. Arm 1 consisted of administering daily, through topical application, Compound A (3.6 mg/mL) in the gel. Arm 2 consisted of administering daily the vehicle gel through topical application as a control.

GzmB [3] = target: T1, GzmB; assay: GzmB-mediated cleavage of nidogen-2 with inhibitor (Western Blot); format: biochemical; details: FIG. 22B; nidogen-2 residues 31-1375, 500 ng, 200 nM purified human GzmB, 100 μM Compound A
Description: as §1

GzmB [4] = target: T1, GzmB; assay: GzmB cleavage assay of collagen VII with GzmB inhibitors (Western Blot); format: biochemical; details: for inhibition of GzmB-mediated collagen VII cleavage: FIG. 3, collagen VII 500 ng, 200 mM of GzmB, 24 hours 37° C., GzmB incubated with inhibitor 1 hour before substrate
Description: (§3) Addition of GzmB inhibitors (Serpin A3N, Compound 20, Compound A) prevented GzmB-mediated collagen VII cleavage. Bands indicating fragments are labeled. GzmB cleavage assay was performed in 40 μL of PBS. Briefly, collagen VII (500 ng) was incubated with […] of GzmB for 24 hours at 37° C. For inhibition, GzmB was incubated with Compound 20, Serpin A3N and Compound A for 1 hour at 37° C. prior to the addition of collagen VII. After 24 hours, all samples were loaded onto a 10% SDS-PAGE, blotted on a PVDF membrane and incubated with a primary antibody specific for collagen VII (rabbit anti-collagen VII, Abcam plc) overnight at 4° C., and then with a secondary labeled anti-rabbit antibody for 1 hour at room temperature.
as §1
as §3, with “A” for “Addition of GzmB inhibitors (Serpin A3N, Compound 20, Compound A) prevented GzmB-mediated collagen VII cleavage. Bands indicating fragments are labeled.”, “hours” for “hours,”, “on” for “on a”
The recombinant human integrin α6/β4 (α6 a.a. 24-878, β4 a.a. 28-710, R&D Systems, Minneapolis, Minn.), collagen VII (199-482 a.a., MyBiosource, San Diego, Calif.), collagen XVII (a.a. 490-1497, generous gift from Dr. Claus-Werner Franzke), and collagen I (Novus Biologicals, Littleton, Colo.) were incubated for 24 hours at 37° C. in 200 nM purified human GzmB (EmeraldBio, Bainbridge Island, Wash.). For inhibition studies, prior to the addition of substrates to the reaction, GzmB was incubated in the presence of 600 nm serpin A3N (generous gift from Dr. Chris R. Bleackley, University of Alberta, Edmonton, AB, Canada) or 100 NM of the small molecule inhibitor Compound 20 (courtesy of the Centre for Drug Research and Development, Vancouver, BC) for 1 hour at 37° C. After the 24 hours incubation, proteins were denatured, separated on a 4-20% (for integrin α6/β4), 10% (for collagen VII), 8-10% (for collagen XVII), or 7.5% (for collagen I) SDS-polyacrylamide gel. Cleavage was detected by Western Blot using anti-human integrin α6 sub-unit (ABCAM), anti-human integrin β4 sub-unit (R&D Systems, Minneapolis, Minn.), anti collagen VII (ABCAM), and anti-human collagen XVII (generous gift from Dr. Claus-Werner Franzke) and imaged using a Li-Cor Odissey® FC (Li-Cor, Lincoln, Nebr.). […]

GzmB [5] = target: T1, GzmB; assay: GzmB-mediated cleavage of collagen XVII with inhibitors (Western Blot); format: biochemical; details: FIG. 16A, collagen XVII a.a. 490-1497, 200 nM GzmB, pre-incubation with Compound 20 or serpin A3N
Description: Black arrow indicates cleavage fragment and * indicates full-length protein. GzmB produces a cleavage band, and this cleavage is abolished by the addition of Com20 or S3AN. […] Dotted lines indicate separation between the epidermis and the dermis. Scale bars represent […].
as §2

T1 sequence (P10144 21-247): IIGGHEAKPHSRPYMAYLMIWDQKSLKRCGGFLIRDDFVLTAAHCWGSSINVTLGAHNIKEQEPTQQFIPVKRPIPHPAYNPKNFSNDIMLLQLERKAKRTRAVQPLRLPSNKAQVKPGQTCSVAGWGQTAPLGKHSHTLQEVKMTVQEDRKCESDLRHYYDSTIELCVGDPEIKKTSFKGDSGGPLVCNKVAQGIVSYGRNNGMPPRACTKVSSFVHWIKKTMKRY

| Molecule | inhibition of GzmB-mediated cleavage of α6β4 integrin (GzmB [1]; FIG. 22A, Coomassie staining, 200 nM purified human GzmB, 100 μM Compound A pre-incubated 1 hour) | blistering ([2]; FIG. 8A, mice, burn injury, Compound A daily for 30 days versus saline-treated skin) | blistering compared to saline-only treatment ([2]; Compound A in PBS 3.6 mg/mL, daily subcutaneous injection) | blistering compared to saline-only treatment ([2]; Compound A in gel 3.6 mg/mL, daily topical application) | blistering compared to gel alone ([2]; FIG. 8C, Compound A in gel 3.6 mg/mL, daily topical application, 25-day study) | inhibition of GzmB-mediated cleavage of nidogen-2 (GzmB [3]) | inhibition of GzmB-mediated collagen VII cleavage (GzmB [4]) | inhibition of GzmB-mediated cleavage of collagen VII (GzmB [4]; FIG. 22C, collagen VII residues 199-482, 500 ng, 200 nM purified human GzmB, 100 μM Compound A pre-incubated 1 hour) | inhibition of GzmB-mediated cleavage of the α6 integrin subunit (GzmB [1]; FIG. 13A, 200 nM GzmB, Western Blot, Compound 20 100 μM, serpin A3N 600 nM) | inhibition of GzmB-mediated cleavage of β4 integrin sub-unit (GzmB [1]; FIG. 14A, 200 nM GzmB, Western Blot, Compound 20 100 μM, serpin A3N 600 nM) | inhibition of GzmB-mediated cleavage of collagen XVII (NC16 ectodomain) (GzmB [5]) | inhibition of GzmB-mediated cleavage of collagen XVII (NC16 ectodomain) (GzmB [5]; listed as S3AN) | inhibition of GzmB-mediated cleavage of collagen VII (GzmB [4]; FIG. 15A, collagen VII a.a. 199-482, 200 nM purified human GzmB, 24 hours, pre-incubation with 600 nm serpin A3N or 100 NM Compound 20) | inhibition of GzmB-mediated cleavage of collagen VII (GzmB [4]; FIG. 15A, collagen VII a.a. 199-482, 200 nM purified human GzmB, 24 hours, pre-incubation with 600 nm serpin A3N or 100 NM Compound 20, listed as S3AN) |
| --- | --- | --- | --- | --- | --- | --- | --- | --- | --- | --- | --- | --- | --- | --- |
| CC[C@H](C)[C@H](NC(=O)CCC(=O)O)C(=O)NCC(=O)N1C(=O)N(C2CCCCC2)C[C@H]1C(=O)NCc1nn[nH]n1 [Compound A, 4-(((2S,3S)-1-((2-((S)-5-(((2H-tetrazol-5-yl)methyl)carbamoyl)-3-cyclohexyl-2-oxoimidazolidin-1-yl)-2-oxoethyl)amino)-3-methyl-1-oxopentan-2-yl)amino)-4-oxobutanoic acid] | can prevent the cleavage | Blistering is prevented | reduce blistering | reduce blistering | reduced blistering | this cleavage was prevented | prevented | this cleavage is prevented | – | – | – | – | – | – |
| Serpin A3N: an irreversible serine protease inhibitor used as GzmB inhibitor (protein, UniProt Q91WP6 21-418, looked up) Serine protease inhibitor A3N: FPDGTLGMDAAVQEDHDNGTQLDSLTLASINTDFAFSLYKELVLKNPDKNIVFSPLSISAALAVMSLGAKGNTLEEILEGLKFNLTETSEADIHQGFGHLLQRLNQPKDQVQISTGSALFIEKRQQILTEFQEKAKTLYQAEAFTADFQQPRQAKKLINDYVRKQTQGMIKELVSDLDKRTLMVLVNYIYFKAKWKVPFDPLDTFKSEFYAGKRRPVIVPMMSMEDLTTPYFRDEELSCTVVELKYTGNASALFILPDQGRMQQVEASLQPETLRKWKNSLKPRMIDELHLPKFSISTDYSLEDVLSKLGIREVFSTQADLSAITGTKDLRVSQVVHKAVLDVAETGTEAAAATGVKFVPMSAKLYPLTVYFNRPFLIMIFDTETEIAPFIAKIANPK | – | – | – | – | – | – | prevented | – | prevented the cleavage | prevented the cleavage | prevented NC16 cleavage | abolished | prevented the appearance of both ˜20 and 25 kDa bands | abolished |
